The NIST ThermoML archive (doi:10.1016/j.jct.2010.04.003)
Numbers after ± are expanded uncertainties.

Settings: 101.33 kPa, Liquid, Buoyancy - hydrostatic balance with magnetic suspension - one sinker

CN(C)P(=O)(N(C)C)N(C)C [tris(dimethylamino)phosphine oxide]
mass density (288.15 K): 1028.54 ± 0.33 kg/m3 | mass density (293.15 K): 1024.33 ± 0.33 kg/m3 | mass density (298.15 K): 1020.03 ± 0.33 kg/m3 | mass density (303.15 K): 1015.86 ± 0.32 kg/m3 | mass density (308.15 K): 1011.61 ± 0.32 kg/m3
